{
  "source": "paper PMC8729767",
  "about": "“Specific Strains of Honeybee Gut Lactobacillus Stimulate Host Immune System to Protect against Pathogenic Hafnia alvei” (Microbiology Spectrum, 2022)",
  "key": {"[1]": {"system": "honeybees exposed to H. alvei", "experiment": "H. alvei infection survival assay", "assay_type": "in vivo, Apis mellifera", "settings": "adult worker bees fed 450 μg/ml tetracycline in sucrose syrup, then orally exposed to H. alvei SMH01 for 24 h; N = 30 bees per group; Mantel-Cox test, P < 0.05", "protocol": "Using in vivo virulence assays, we first explored whether H. alvei is pathogenic to adult honeybees. One H. alvei strain SMH01 was isolated from the worker bee gut. Then we investigated if the strain contributes to increased mortality of bees with normal or disturbed gut microbiota. Adult worker bees were collected from a brood frame in the hive and were treated with or without tetracycline. After introduction in the lab, groups of bees were fed filter-sterilized sucrose syrup (controls) or tetracycline suspended in the diet (Tet) for 5 days (Fig. 1A). Then we challenged bees with H. alvei SMH01. Bees were orally exposed to H. alvei in their food for 24 h. […] To confirm the pathogenicity of H. alvei to honeybees, we performed histology of honeybee guts exposed to H. alvei. […] Damaged tissue presented barely preserved mucosal architecture of the rectum in H. alvei-infected bees (Fig. 1C and D).\nApproximately 200 adult worker bees were collected from brood frame from the hive kept at Miyun County, Beijing (March 2019). The bees were immobilized at 4°C and were divided into two cohorts (control and tetracycline treatment) distributed to cup cages as previously described ([11]). The cup cages were maintained in an incubator at 35°C, with humidity of 50%. Each cohort has five replicating cup cages containing ∼20 bees in each cup. […]"}, "H. alvei": {"system": "H. alvei", "assay_type": "cell-based, Hafnia alvei", "protocol": "To verify the inhibitory effect of AMPs secreted by honeybees on H. alvei, we performed an in vitro AMP resistance assay (Table S2 in the supplemental material). A. mellifera expresses two dominant apidaecin isoforms (Ia, Ib) at a ratio of approximately 1 : 20 ([31]). […] However, low concentration (8–16 μg/ml) of apidaecin-1a and 1b inhibited the growth of H. alvei, and the pathogen was slightly more resistant to apidaecin Ia than to Ib.\nTo test the activity of AMPs against H. alvei, growth inhibition assays in liquid media were performed using 50% diluted HIA media. AMPs synthesized by GL Biochem and Sangon Biotech were serially diluted in 96-well plates to obtain concentrations of 0.5 to 512 µg/ml. Overnight grown H. alvei cultures from HIA media were diluted to 1 × 10^6 CFU/ml in 50% Heart Infusion Broth. Optical density was recorded after 24 h of incubation at 35°C, 5% CO2."}, "[2]": {"settings": "H. alvei 1 × 10^6 CFU/ml in 50% Heart Infusion Broth, optical density after 24 h at 35°C, 5% CO2"}},
  "note": "Read-outs that look alike come from different tables or passages of the source. Peptide text beside a SMILES is read from it.",
  "data": [
    {"compound": "CN(C)[C@@H]1C(O)=C(C(N)=O)C(=O)[C@@]2(O)C(O)=C3C(=O)c4c(O)cccc4[C@@](C)(O)[C@H]3C[C@@H]12", "note": "[Tetracycline, tetracycline]", "values": [
      {"measurement": "survivorship of honeybees after exposure to H. alvei", "setting": "[1]", "value": "reduced survivorship"}
    ]},
    {"compound": "CC[C@H](C)[C@H](NC(=O)[C@H](CCCCN)NC(=O)[C@@H]1CCCN1C(=O)[C@H](CC(N)=O)NC(=O)[C@H](Cc1ccccc1)NC(=O)[C@@H]1CCCN1C(=O)CNC(=O)[C@H](CCC(N)=O)NC(=O)CNC(=O)[C@@H]1CCCN1C(=O)[C@H](Cc1ccccc1)NC(=O)[C@@H](NC(=O)[C@@H]1CCCN1C(=O)[C@H](Cc1ccccc1)NC(=O)[C@@H]1CCCN1C(=O)[C@H](CCCNC(=N)N)NC(=O)[C@H](CCCNC(=N)N)NC(=O)CNC(=O)[C@@H]1CCCN1C(=O)[C@H](CCC(N)=O)NC(=O)[C@@H]1CCCN1C(=O)[C@@H](NC(=O)[C@H](CC(N)=O)NC(=O)[C@@H]1CCCN1C(=O)[C@H](CC(C)C)NC(=O)[C@@H]1CCCN1C(=O)[C@@H](NC(=O)[C@@H](N)Cc1ccc(O)cc1)C(C)C)[C@@H](C)CC)[C@@H](C)O)C(=O)N[C@@H](CCCCN)C(=O)N[C@@H](Cc1c[nH]c2ccccc12)C(=O)N1CCC[C@H]1C(=O)N[C@@H](CCC(N)=O)C(=O)NCC(=O)N[C@@H](Cc1ccc(O)cc1)C(=O)O", "note": "[abaecin] (H-YVPLPNIPQPGRRPFPTFPGQGPFNPKIKWPQGY-OH; N-terminus and C-terminus assumed)", "values": [
      {"measurement": "MIC", "setting": "H. alvei; 24 h", "value": "> 512", "unit": "µg/mL"}
    ]},
    {"compound": "apidaecin-1a", "values": [
      {"measurement": "low concentration that inhibited the growth of H. alvei", "setting": "H. alvei; [2]", "value": "8 to 16", "unit": "µg/mL"}
    ]},
    {"compound": "apidaecin-1b", "values": [
      {"measurement": "low concentration that inhibited the growth of H. alvei", "setting": "H. alvei; [2]", "value": "8 to 16", "unit": "µg/mL"},
      {"measurement": "concentration with a profound inhibition on the growth of H. alvei", "setting": "H. alvei; in vitro growth inhibition, 24 h, 35°C, 5% CO2", "value": "≥ 4", "unit": "µg/mL"}
    ]},
    {"compound": "hymenoptaecin", "values": [
      {"measurement": "MIC", "setting": "H. alvei; H. alvei 1 × 10^6 CFU/ml in 50% Heart Infusion Broth, AMPs serially diluted 0.5 to 512 µg/ml in 96-well plates, optical density after 24 h at 35°C, 5% CO2", "value": "> 512", "unit": "µg/mL"}
    ]}
  ]
}
